Laboratory results: patent US20190330226A1, “POSITIVE ALLOSTERIC MODULATORS OF THE MUSCARINIC ACETYLCHOLINE RECEPTOR M1” (Vanderbilt University, priority 2018, published 2019)

Molecular target: T1, human mAChR M1 (Homo sapiens, UniProt P11229)
T1 construct: host or cells: CHO-K1 (ATCC), stably transfected using Lipofectamine 2000
T1 sequence (P11229 1-460): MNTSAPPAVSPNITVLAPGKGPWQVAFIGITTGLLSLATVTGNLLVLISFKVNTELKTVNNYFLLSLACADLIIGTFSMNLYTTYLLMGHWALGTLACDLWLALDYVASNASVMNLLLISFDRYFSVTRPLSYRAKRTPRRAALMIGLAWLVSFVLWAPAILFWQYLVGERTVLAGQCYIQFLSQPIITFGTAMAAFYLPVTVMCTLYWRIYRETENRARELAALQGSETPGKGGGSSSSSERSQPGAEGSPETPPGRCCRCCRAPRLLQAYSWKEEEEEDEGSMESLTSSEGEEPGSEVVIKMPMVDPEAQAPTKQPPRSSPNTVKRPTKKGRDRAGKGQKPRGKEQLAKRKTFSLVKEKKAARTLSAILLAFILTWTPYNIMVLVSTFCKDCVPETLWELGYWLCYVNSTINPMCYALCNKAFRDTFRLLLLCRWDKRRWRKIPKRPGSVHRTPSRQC
Experiment: mAChR M1 cell-based functional assay (calcium mobilization, Fluo-4, FDSS)
Settings: CHO-K1 cells stably expressing hM1, calcium flux; for Emax: PAM mode with EC20 acetylcholine; for EC50: concentration-dependent increase in the EC20 acetylcholine response
Source text: Chinese hamster ovary (CHO-K1) cells stably expressing rat (r)M1 were purchased from the American Type Culture Collection and cultured according to their indicated protocol. CHO cells stably expressing human (h)M2, hM3, and hM5 were described previously (Levey, et al., 1991); hM1 and hM4 cDNAs were purchased from Missouri S&T cDNA Resource; rM4 cDNA was provided by T. I. Bonner (National Institutes of Health, Bethesda, Md.). rM2 and rM3 were cloned from a rat brain cDNA library and sequence verified. hM1, rM2, rM3, hM4, and rM4 cDNAs were used to stably transfect CHO-K1 cells purchased from the American Type Culture Collection using Lipofectamine 2000. To make stable rM2, hM2, rM3, hM4, and rM4 cell lines for use in calcium mobilization assays, these cells also were stably transfected with a chimeric G-protein (Gqi5) (provided by B. R. Conklin, University of California, San Francisco) using Lipofectamine 2000. rM1, hM1, rM3, hM3, rM5, and hM5 cells were grown in Ham's F-12 medium containing 10% heat-inactivated fetal bovine serum (FBS), 20 mM HEPES, and 50 µg/mL G418 sulfate. rM2-Gqi5, hM2-Gqi5, and hM4-Gqi5 cells were grown in the same medium also containing 500 μg/mL Hygromycin B. Stable rM4-Gqi5 cells were grown in DMEM containing 10% heat-inactivated FBS, 20 mM HEPES, 400 μg/mL G418 sulfate, and 500 μg/mL Hygromycin B.
For high throughput measurement of agonist-evoked increases in intracellular calcium, CHO-K1 cells stably expressing muscarinic receptors were plated in growth medium lacking G418 and hygromycin at 15,000 cells/20 μL/well in Greiner 384-well black-walled, tissue culture (TC)-treated, clear-bottom plates (VWR). Cells were incubated overnight at 37° C. and 5% CO2. The next day, cells were washed using an ELX 405 (BioTek) with four washes ([…]) of assay buffer then aspirated to 20 μL. Next, 20 μL of 16 μM Fluo-4/acetoxymethyl ester (Invitrogen, Carlsbad, Calif.) prepared as a 2.3 mM stock in DMSO and mixed in a 1:1 ratio with 10% (w/v) Pluronic F-127 and diluted in assay buffer was added to the wells and the cell plates were incubated for 50 min at 37° C. and 5% CO2. Dye was removed by washing with the ELX 405 (four 80 μL washes of assay buffer) then aspirated to 20 μL. Compound master plates were formatted in an 11 point CRC format (1:3 dilutions) in 100% DMSO with a starting concentration of 10 mM using the BRAVO liquid handler (Agilent). Test compound CRCs were then transferred to daughter plates (240 nL) using the Echo acoustic plate reformatter (Labcyte, Sunnyvale, Calif.) and then diluted into assay buffer (40 μL) to a 2× stock using a Thermo Fisher Combi (Thermo Fisher Scientific, Waltham, Mass.).
Calcium flux was measured using the Functional Drug Screening System (FDSS) 6000 (Hamamatsu Corporation, Tokyo, Japan) as an increase in the fluorescent static ratio. Compounds were applied to cells (20 μL, 2×) using the automated system of the FDSS 6000 at 4 s into the 300 s protocol and the data were collected at 1 Hz. At 144 s into the 300s protocol, 10 μL of an EC20 concentration of the muscarinic receptor agonist acetylcholine was added (5×), followed by the addition of 12 μL an EC80 concentration of acetylcholine at the 230 s time point (5×). Agonist activity was analyzed as a concentration-dependent increase in calcium mobilization upon compound addition. Positive allosteric modulator activity was analyzed as a concentration-dependent increase in the EC20 acetylcholine response. Antagonist activity was analyzed as a concentration-dependent decrease in the EC80 acetylcholine response. Concentration-response curves were generated using a four-parameter logistical equation in XLfit curve fitting software (IDBS, Bridgewater, N.J.) for Excel (Microsoft, Redmond, Wash.) or Prism (GraphPad Software, Inc., San Diego, Calif.).
Activity (EC50 and Emax) was determined in the mAChR M1 cell-based functional assay as described above and the data are shown in Table 2. […]

Structure (SMILES)	Emax [%]	EC50 [µM]
Cc1cc(-c2cc(F)c(CN3Cc4cnn(CC5CCCO5)c4C3=O)c(F)c2)ccn1 (stereo not shown) [Compound 39, 5-(2,6-difluoro-4-(2-methylpyridin-4-yl)benzyl)-1-((tetrahydrofuran-2-yl)methyl)-4,5-dihydropyrrolo[3,4-c]pyrazol-6(1H)-one]	65	3.58
Cn1cc(-c2cc(F)c(CN3Cc4ncsc4C3=O)c(F)c2)cn1 [Compound 14, 5-(2,6-difluoro-4-(1-methyl-1H-pyrazol-4-yl)benzyl)-4,5-dihydro-6H-pyrrolo[3,4-d]thiazol-6-one]	40	–
O=C1c2ccsc2CN1Cc1c(F)cc(-c2ccc3nccn3c2)cc1F [Compound 30, 5-(2,6-difluoro-4-(imidazo[1,2-a]pyridin-6-yl)benzyl)-5,6-dihydro-4H-thieno[2,3-c]pyrrol-4-one]	30	0.5
Cn1cc2c(-c3cc(F)c(CN4Cc5cn(CCN6CCCC6)nc5C4=O)c(F)c3)cccc2n1 [Compound 21, 5-(2,6-difluoro-4-(2-methyl-2H-indazol-4-yl)benzyl)-2-(2-(pyrrolidin-1-yl)ethyl)-4,5-dihydropyrrolo[3,4-c]pyrazol-6(2H)-one]	57	5.18
COCCn1ncc2c1C(=O)N(Cc1c(F)cc(-c3cccc4nn(C)cc34)cc1F)C2 [Compound 18, 5-(2,6-difluoro-4-(2-methyl-2H-indazol-4-yl)benzyl)-1-(2-methoxyethyl)-4,5-dihydropyrrolo[3,4-c]pyrazol-6(1H)-one]	87	3.1
Cn1ccc(-c2ccc(CN3Cc4sccc4C3=O)c(F)c2)n1 [Compound 42, 5-(2-fluoro-4-(1-methyl-1H-pyrazol-3-yl)benzyl)-5,6-dihydro-4H-thieno[2,3-c]pyrrol-4-one]	46	–
Cc1nn(C)cc1-c1ccc(CN2Cc3sccc3C2=O)c(F)c1 [Compound 43, 5-(4-(1,3-dimethyl-1H-pyrazol-4-yl)-2-fluorobenzyl)-5,6-dihydro-4H-thieno[2,3-c]pyrrol-4-one]	70	–
Cn1cc2cc(-c3cc(F)c(CN4Cc5ccsc5C4=O)c(F)c3)ccc2n1 [Compound 31, 5-(2,6-difluoro-4-(2-methyl-2H-indazol-5-yl)benzyl)-4,5-dihydro-6H-thieno[2,3-c]pyrrol-6-one]	40	0.246
Cn1cc2c(-c3cc(F)c(CN4Cc5cn[nH]c5C4=O)c(F)c3)cccc2n1 [Compound 6.2, 5-(2,6-difluoro-4-(2-methyl-2H-indazol-4-yl)benzyl)-4,5-dihydropyrrolo[3,4-c]pyrazol-6(1H)-one]	87	–
Cc1cc(-c2cc(F)c(CN3Cc4sccc4C3=O)c(F)c2)cc2cn[nH]c12 [Compound 29, 5-(2,6-difluoro-4-(7-methyl-1H-indazol-5-yl)benzyl)-5,6-dihydro-4H-thieno[2,3-c]pyrrol-4-one]	45	–
Cn1cc(-c2ccc(CN3Cc4ncsc4C3=O)c(F)c2)cn1 [Compound 12, 5-(2-fluoro-4-(1-methyl-1H-pyrazol-4-yl)benzyl)-4,5-dihydro-6H-pyrrolo[3,4-d]thiazol-6-one]	47	–
Cn1cc2c(-c3cc(F)c(CN4Cc5cn(CC6CCCO6)nc5C4=O)c(F)c3)cccc2n1 (stereo not shown) [Compound 17, 5-(2,6-difluoro-4-(2-methyl-2H-indazol-4-yl)benzyl)-2-((tetrahydrofuran-2-yl)methyl)-4,5-dihydropyrrolo[3,4-c]pyrazol-6(2H)-one]	58	3.41
Cn1cc2cc(-c3cc(F)c(CN4Cc5occc5C4=O)c(F)c3)ccc2n1 [Compound 57, 5-(2,6-difluoro-4-(2-methyl-2H-indazol-5-yl)benzyl)-5,6-dihydro-4H-furo[2,3-c]pyrrol-4-one]	42	0.99
Cc1nn(C)cc1-c1cc(F)c(CN2Cc3ccn(CC4CCCO4)c3C2=O)c(F)c1 (stereo not shown) [Compound 51, 5-(4-(1,3-dimethyl-1H-pyrazol-4-yl)-2,6-difluorobenzyl)-1-((tetrahydrofuran-2-yl)methyl)-4,5-dihydropyrrolo[3,4-b]pyrrol-6(1H)-one]	51	3.45
Cc1[nH]cc2c1C(=O)N(Cc1c(F)cc(-c3cccc4nn(C)cc34)cc1F)C2 [Compound 61, 2-(2,6-difluoro-4-(2-methyl-2H-indazol-4-yl)benzyl)-6-methyl-3,5-dihydropyrrolo[3,4-c]pyrrol-1(2H)-one]	51	–
Cn1cc2c(-c3cc(F)c(CN4Cc5cn(Cc6ccccn6)nc5C4=O)c(F)c3)cccc2n1 [Compound 7, 5-(2,6-difluoro-4-(2-methyl-2H-indazol-4-yl)benzyl)-2-(pyridin-2-ylmethyl)-4,5-dihydropyrrolo[3,4-c]pyrazol-6(2H)-one]	46	–
Cn1cc2c(-c3cc(F)c(CN4Cc5sccc5C4=O)c(F)c3)cccc2n1 [Compound 1, 5-(2,6-difluoro-4-(2-methyl-2H-indazol-4-yl)benzyl)-5,6-dihydro-4H-thieno[2,3-c]pyrrol-4-one]	84	1.59
Cn1cc2c(-c3cc(F)c(CN4Cc5ncsc5C4=O)c(F)c3)cccc2n1 [Compound 5, 5-(2,6-difluoro-4-(2-methyl-2H-indazol-4-yl)benzyl)-4,5-dihydro-6H-pyrrolo[3,4-d]thiazol-6-one]	73	–
Cn1cc(-c2cc(F)c(CN3Cc4cnn(CC5CCCO5)c4C3=O)c(F)c2)cn1 (stereo not shown) [Compound 35, 5-(2,6-difluoro-4-(1-methyl-1H-pyrazol-4-yl)benzyl)-1-((tetrahydrofuran-2-yl)methyl)-4,5-dihydropyrrolo[3,4-c]pyrazol-6(1H)-one]	73	–
